Where two headings read alike, the source gives them in different places.
Key:
[1] = test system: RNA Polymerase II Serine 5 phosphorylation (Rpb1 CTD, downstream substrate of CDK7) in A549 cells; assay: Imaging-based cellular RNA PolII Ser5 phosphorylation assay in A549 cells; format: cell-based, human; details: for CDK7_A549 Wild-type CDK7 (pIC50): A549 cells; for IC50: Homo sapiens
Method in brief: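 A549 cells, seeded 1000/well in DMEM with 1% FBS and cultured 20 h, were treated with compound for 3 h at 37 °C. Ser5-phospho-Rpb1 CTD detected by immunofluorescence imaging after fixation and methanol permeabilization; IC50 from curve fit normalized to DMSO and 10 μM reference-compound controls.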

[2] = test system: RNA Polymerase II Serine 5 phosphorylation in A549 cells overexpressing CDK7-mutant (C312S); assay: Imaging-based cellular RNA PolII Ser5 phosphorylation assay in A549 cells overexpressing CDK7-mutant (C312S); format: cell-based, human; details: for CDK7_A549 mutant hCDK7(pIC50): A549 cells overexpressing CDK7-mutant (C312S); for IC50: Homo sapiens
Method in brief: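 A549 cells overexpressing CDK7 C312S (with endogenous wild-type CDK7) were treated with compound for 3 h at 37 °C in 1% FBS medium. Phospho-Rpb1 CTD Ser5 was immunostained after fixation and imaged. IC50 came from curve fit of % control, normalised to DMSO and 10 μM reference-compound controls.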

[3] = biological target: CDK7/cyclinH/MAT1 trimeric complex (Homo sapiens, UniProt P50613); assay: In vitro CDK7 assay, potency of irreversible covalent inhibitors (kinact/KI), coupled PK/LDH ADP readout at 340 nm
[4] = wild-type CDK7, RNA PolII Ser5 phosphorylation, averaged over all measurements
[5] = RNA PolII Ser5 phosphorylation, averaged over all measurements
[6] = CDK7 (KI(μM)), […], 1 mM ATP, room temperature, averaged values over all measurements
[7] = read-out: CDK7 (kinact, s^−1), kinact = maximal rate of inactivation, 1 mM ATP, room temperature, averaged values over all measurements
[8] = A549, A549 cells, wild-type CDK7, RNA PolII Ser5 phosphorylation, averaged over all measurements, read-out: CDK7_A549 Wild-type CDK7 (pIC50) (converted)
[9] = A549, A549 cells overexpressing CDK7-mutant (C312S), RNA PolII Ser5 phosphorylation, averaged over all measurements, read-out: CDK7_A549 mutant hCDK7(pIC50) (converted)
[10] = CDK7 (20 nM enz.) (KI, μM), 20 nM enzyme
[11] = read-out: CDK7 (20 nM enz.) (kinact, s^−1), 20 nM enzyme
[12] = read-out: CDK7 (20 nM enz.) (kinact/KI, M^−1*s^−1), 20 nM enzyme
[13] = read-out: CDK7 (kinact/KI, M^−1*s^−1), potency of irreversible covalent inhibitors, 1 mM ATP, room temperature, averaged values over all measurements
[14] = read-out: CDK7 (20 nM enz.) (kobs/[I], M^−1*s^−1), 20 nM enzyme

Sequence of CDK7/cyclinH/MAT1 trimeric complex (P50613 whole entry): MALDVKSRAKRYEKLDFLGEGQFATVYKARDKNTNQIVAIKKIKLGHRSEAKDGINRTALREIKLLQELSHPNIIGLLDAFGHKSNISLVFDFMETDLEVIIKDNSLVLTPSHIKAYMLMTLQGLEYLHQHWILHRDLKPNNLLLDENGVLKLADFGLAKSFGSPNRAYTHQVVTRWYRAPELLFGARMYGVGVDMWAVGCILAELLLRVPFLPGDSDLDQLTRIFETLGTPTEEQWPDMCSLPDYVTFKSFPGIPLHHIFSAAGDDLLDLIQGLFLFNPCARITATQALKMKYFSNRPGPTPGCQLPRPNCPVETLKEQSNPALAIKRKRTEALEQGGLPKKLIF
Sequence of CDK7/cyclinH/MAT1 trimeric complex (P51946 whole entry partner): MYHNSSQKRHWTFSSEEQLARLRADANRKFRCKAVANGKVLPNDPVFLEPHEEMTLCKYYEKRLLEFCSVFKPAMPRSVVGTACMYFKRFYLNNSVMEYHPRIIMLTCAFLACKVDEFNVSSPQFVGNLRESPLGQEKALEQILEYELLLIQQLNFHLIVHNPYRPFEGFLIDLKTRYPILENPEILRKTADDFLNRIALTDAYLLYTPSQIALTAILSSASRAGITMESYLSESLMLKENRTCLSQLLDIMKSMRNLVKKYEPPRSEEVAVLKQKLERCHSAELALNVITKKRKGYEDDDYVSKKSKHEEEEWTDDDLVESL
Sequence of CDK7/cyclinH/MAT1 trimeric complex (P51948 whole entry partner): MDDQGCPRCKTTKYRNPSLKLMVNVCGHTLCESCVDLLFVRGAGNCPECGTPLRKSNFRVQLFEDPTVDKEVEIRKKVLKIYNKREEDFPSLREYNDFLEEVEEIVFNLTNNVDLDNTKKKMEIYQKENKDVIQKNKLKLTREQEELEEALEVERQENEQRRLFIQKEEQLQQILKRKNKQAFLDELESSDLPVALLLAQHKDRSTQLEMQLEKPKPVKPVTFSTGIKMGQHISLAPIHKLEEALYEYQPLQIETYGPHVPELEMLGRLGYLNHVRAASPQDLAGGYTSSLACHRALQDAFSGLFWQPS

Structure (SMILES) | Ki [3, 6] [µM] | kinact [3, 7] [s⁻¹] | IC50 [1, 8] [µM] | IC50 [2, 9] [µM] | kinact/KI [3, 13] [M⁻¹ s⁻¹] | also measured
C=CC(=O)N1CC(N2CCC(c3ccc4c(c3)Nc3nccc(N5CCOCC5)c3CO4)CC2)C1 [Compound 4] | 0.0617 | 0.000303 |  |  |  | CDK7_A549 Wild-type CDK7 (pIC50) [1, 4]: 6.84; CDK7_A549 mutant hCDK7(pIC50) [2, 5]: <5; CDK7 (kinact/KI, M^−1*s^−1) ([3]; potency of irreversible covalent inhibitors, 1 mM ATP, room temperature, averaged values over all measurements): 3147.06 M⁻¹ s⁻¹
C#CCOc1cc(C(=O)Nc2ccc3c(c2)Nc2nccc(C4CCOCC4)c2CO3)ccc1NC(=O)C=C [Compound 8] |  |  | 0.12 | > 10 | 1530 | Ki [3, 10]: 0.0321 µM; kinact [3, 11]: 5.8e-05 s⁻¹; kinact/KI [3, 12]: 1810 M⁻¹ s⁻¹
C=CC(=O)N1CC(N2CCC(c3ccc4c(c3)Nc3nccc(C5=CCOCC5)c3CO4)CC2)C1 [Compound 10] | 0.0555 | 0.000107 | 0.204 | > 10 | 1570 | 
C=CC(=O)N1CC(N2CCC(c3ccc4c(c3)Nc3ncc(Cl)c(N5CCOCC5)c3CO4)CC2)C1 [Compound 13] |  |  | 0.135 | > 10 | 1040 | 
C#Cc1cc(C(=O)Nc2ccc3c(c2)Nc2nccc(C4CCOCC4)c2CO3)ccc1NC(=O)C=C [Compound 18] |  |  | 0.1 | 4.27 |  | kinact/KI [3, 14]: 1070 M⁻¹ s⁻¹
C=CC(=C)N1CC(N2CCC(c3cc4c(cc3C)OCc3c(N5CCOCC5)ccnc3N4)CC2)C1 [Compound 19] |  |  |  |  |  | IC50 ([1]; A549, read-out: CDK7_A549 Wild-type CDK7 (pIC50) (converted)): 0.166 µM; IC50 ([2]; A549, read-out: CDK7_A549 mutant hCDK7(pIC50) (converted)): > 10 µM; kinact/KI ([3]; read-out: CDK7 (kinact/KI, M^−1*s^−1)): 304 M⁻¹ s⁻¹
C=CC(=O)Nc1cc(-c2ccc3c(c2)Nc2nccc(N4CCOCC4)c2CO3)ccn1 [Compound 24] |  |  | 0.0525 | 6.92 | 21.5 | kinact/KI [3, 12]: 1250 M⁻¹ s⁻¹
C=CC(=O)N1CCC(c2ccc(-c3ccc4c(c3)Nc3nccc(N5CCOCC5)c3CO4)cn2)C1 (centres unmarked) [Compound 25] | 0.0648 | 2.33e-05 | 0.891 | > 10 | 254 | 
C=CC(=O)N1CCC(C#Cc2ccc3c(c2)Nc2nccc(C4CCOCC4)c2CO3)CC1 [Compound 30] | 0.316 | 6.56e-05 | ~7.59 | > 10 | 208 | 
C=CC(=O)N1CC(N2CCC(c3ccc4c(c3)Nc3nccc(-c5cnc6[nH]ccc6c5)c3CO4)CC2)C1 [Compound 31] | 0.175 | 0.000112 | 0.437 | > 10 | 638 | 
C=CC(=O)N1CCC(N2CC(c3ccc4c(c3)Nc3nccc(C5CCOCC5)c3CO4)C2)CC1 [Compound 36] |  |  |  |  |  | CDK7_A549 Wild-type CDK7 (pIC50) [1, 4]: 6.89; CDK7_A549 mutant hCDK7(pIC50) [2, 5]: 5.04; CDK7 (20 nM enz.) (kinact/KI, M^−1*s^−1) ([3]; 20 nM enzyme): 535 M⁻¹ s⁻¹; Ki [3, 10]: 0.092 µM; kinact [3, 11]: 4.92e-05 s⁻¹
C=CC(=O)N1CC(c2ccc(-c3ccc4c(c3)Nc3nccc(N5CCOCC5)c3CO4)cn2)C1 [Compound 43] | 0.0497 | 5.46e-05 | 0.339 | > 10 | 1100 | 
C=CC(=O)N1CC(N2CCC(c3ccc4c(c3)Nc3ncc(C#N)c(N5CCOCC5)c3CO4)CC2)C1 [Compound 45] | 0.123 | 0.000137 | 1.15 | > 10 | 1110 | 
C=CC(=O)N1CC(N2CCC(c3ccc4c(c3)Nc3nccc(N5CCC6(CCO6)CC5)c3CO4)CC2)C1 [Compound 46] | 0.223 | 0.000102 | 0.631 | > 10 | 456 | 
C=CC(=O)N1CC(N2CCC(c3ccc4c(c3)Nc3nccc(N5CCOC6(CCOCC6)C5)c3CO4)CC2)C1 [Compound 47] | 0.207 | 0.000125 | 0.871 | > 10 | 605 | 
C=CC(=O)N1CC(N2[C@@H]3CC[C@H]2C[C@@H](c2ccc4c(c2)Nc2nccc(N5CCOCC5)c2CO4)C3)C1 [Compound 49] |  |  | 0.0537 | ~10 | 990 | kinact/KI [3, 14]: 1150 M⁻¹ s⁻¹
CC#CC(=O)N1CC(N2CCC(c3ccc4c(c3)Nc3nccc(N5CCOCC5)c3CO4)CC2)C1 [Compound 50] | 0.132 | 0.000144 | ~0.178 | > 10 | 1090 | 
C=CC(=O)N1CC(N2CCC(c3ccc4c(c3)Nc3nccc(N5CCCOCC5)c3CO4)CC2)C1 [Compound 53] |  |  | 0.186 | > 10 | 773 | 
C=CC(=O)N1CC(N2[C@@H]3CC[C@H]2C[C@H](c2ccc4c(c2)Nc2nccc(N5CCOCC5)c2CO4)C3)C1 [Compound 54] | 0.1 | 0.0001 | 0.145 | 8.13 | 997 | 

Now from value to compound, other results behind:

Ki [3, 6] [µM] | kinact [3, 7] [s⁻¹] | IC50 [1, 8] [µM] | IC50 [2, 9] [µM] | kinact/KI [3, 13] [M⁻¹ s⁻¹] | Structure (SMILES) | also measured
 |  | 0.447 | > 10 | 486 | C=CC(=O)N1CC(N2CCC(c3ccc4c(c3)Nc3nccc(N5CCS(=O)(=O)CC5)c3CO4)CC2)C1 [Compound 9] | 
 |  | 0.0871 | > 10 | 688 | C=CC(=O)N1CC(N2CCC(c3ccc4c(c3)Nc3nccc(N5C[C@H]6CC[C@@H](C5)O6)c3CO4)CC2)C1 [Compound 11] | 
 |  | 0.537 | > 10 | 296 | C=CC(=O)N1CC(N2CCC(c3ccc4c(c3)Nc3nccc(N5CC=C(CCO)CC5)c3CO4)CC2)C1 [Compound 12] | 
 |  | 0.0457 | 3.8 | 402 | C=CC(=O)Nc1ccc(CNc2ccc3c(c2)Nc2nccc(N4CCOCC4)c2CO3)cn1 [Compound 16] | Ki [3, 10]: 0.0286 µM; kinact [3, 11]: 3.3e-05 s⁻¹; kinact/KI [3, 12]: 1160 M⁻¹ s⁻¹
 |  | 0.126 | > 10 |  | C#CCN(C(=O)C=C)c1ccc(C(=O)Nc2ccc3c(c2)Nc2nccc(C4CCOCC4)c2CO3)cc1 [Compound 17] | kinact/KI [3, 14]: 1470 M⁻¹ s⁻¹
 |  | 0.0562 | > 10 | 52.4 | C=CC(=O)N1CC(N2CCC(c3ccc4c(c3)Nc3nccc(N5CCOCC5)c3C(C)O4)CC2)C1 (centres unmarked) [Compound 22] | Ki [3, 10]: 0.0524 µM; kinact [3, 11]: 7.22e-05 s⁻¹; kinact/KI [3, 12]: 1870 M⁻¹ s⁻¹
 |  | 0.12 | > 10 | 455 | C=CC(=O)N1CC(N2CCC(c3cc4c(cc3Cl)OCc3c(N5CCOCC5)ccnc3N4)CC2)C1 [Compound 23] | 
0.063 | 0.000102 |  |  | 1620 | C=CC(=O)Nc1ccc(-c2ccc3c(c2)Nc2nccc(N4CCOCC4)c2CO3)cn1 [Compound 26] | CDK7_A549 Wild-type CDK7 (pIC50) [1, 4]: 7.65; CDK7_A549 mutant hCDK7(pIC50) [2, 5]: ~5.1; CDK7 (20 nM enz.) (kobs/[I], M^−1*s^−1) ([3]; 20 nM enzyme): 1343.33 M⁻¹ s⁻¹
 |  | 0.257 | > 10 | 477 | C=CC(=O)N1CC(N2CCC(c3cc4c(cc3F)OCc3c(N5CCOCC5)ccnc3N4)CC2)C1 [Compound 28] | 
 |  | 0.0389 | ~7.76 |  | C=CC(=O)N1CC(N2CCC(c3cc(Cl)c4c(c3)Nc3nccc(N5CCOCC5)c3CO4)CC2)C1 [Compound 29] | kinact/KI [3, 12]: 1030 M⁻¹ s⁻¹
0.15 | 0.000158 | 0.603 | > 10 | 1050 | C=CC(=O)N1CC(C#Cc2ccc3c(c2)Nc2nccc(C4CCOCC4)c2CO3)C1 [Compound 33] | 
0.129 | 0.00011 | 0.851 | > 10 | 849 | C=CC(=O)N1CC(N2CCC(c3ccc4c(c3)Nc3ncc(C)c(N5CCOCC5)c3CO4)CC2)C1 [Compound 37] | 
 |  | 0.141 | > 10 | 803 | C=CC(=O)N1CC(N2CCC(c3ccc4c(c3)Nc3nccc(-c5cnn(C)c5)c3CO4)CC2)C1 [Compound 39] | 
0.209 | 6.41e-05 | 1.12 | > 10 | 306 | C=CC(=O)N1CC(N2CCCC(c3ccc4c(c3)Nc3nccc(N5CCOCC5)c3CO4)C2)C1 (centres unmarked) [Compound 40] | 
0.0811 | 6.17e-05 | 0.123 | > 10 | 761 | C=CC(=O)N1CC(N2CCCC(c3ccc4c(c3)Nc3nccc(N5CCOCC5)c3CO4)CC2)C1 (centres unmarked) [Compound 42] | 
0.0706 | 7.84e-05 | 0.417 | > 10 | 1110 | C=CC(=O)N1CC(c2nc(C)c(-c3ccc4c(c3)Nc3nccc(N5CCOCC5)c3CO4)c(C)n2)C1 [Compound 51] | 
0.166 | 0.000166 | 0.282 | 2.82 | 998 | C=CC(=O)N1CC(N2CCC(c3ccc4c(c3)OCc3c(-c5cnn(C)c5)ccnc3N4)CC2)C1 [Compound 52] | 

— US20240254138A1, “TRICYCLIC PYRIMIDINES AS CYCLIN-DEPENDENT KINASE 7 (CDK7) INHIBITORS” (JANSSEN PHARMACEUTICA NV, priority 2021, published 2024)
